This note sets out measurements from ChEMBL document CHEMBL1201862, “PubChem BioAssay data set” (2004).

Molecules are shown by their SMILES. Activity calls are given as the source filed them.

Assay [1] addresses Endoplasmic reticulum aminopeptidase 1 (Homo sapiens, UniProt Q9NZ08). In words: ERAP1 aminopeptidase inhibitors, dose response, biochemical, cherry-pick, set 2, plate reader (AID 743314).
Assay [2] can be described thus: LGR2 antagonists, dose response, cell-based, HEK293, CRE-luciferase reporter, cherry pick, set 2 (AID 743343).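 Also: transfected cells were stimulated with diluted bursicon conditioned medium after compound addition.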 It counts as functional.
A short description of assay [3]: HepG2 cell cytotoxicity, dose response, cytotoxicity control, plate reader, cherry-pick, antagonist series (AID 743416). It counts as functional, cell-based.
Assay [4] can be described thus: MC4R antagonists, dose response, counter-screen for LGR2 antagonist project, cell-based, plate reader, cherry pick (AID 743444).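 Also: transfected HEK 293 cells stimulated with alpha-MSH peptide; potency of inhibitors of the alpha-MSH evoked signal.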 It counts as functional. On the technique in general: The purpose of a counterscreen is to sort out artefacts and off-target activity.
Assay [5] can be described thus: A549 cell cytotoxicity, dose response, cytotoxicity control, plate reader, cherry-pick, antagonist series (AID 743412). It counts as functional, cell-based.
In assay [6] the target is T1, Oxysterols receptor LXR-beta (Homo sapiens, UniProt P55055).
T1 sequence (P55055 whole entry): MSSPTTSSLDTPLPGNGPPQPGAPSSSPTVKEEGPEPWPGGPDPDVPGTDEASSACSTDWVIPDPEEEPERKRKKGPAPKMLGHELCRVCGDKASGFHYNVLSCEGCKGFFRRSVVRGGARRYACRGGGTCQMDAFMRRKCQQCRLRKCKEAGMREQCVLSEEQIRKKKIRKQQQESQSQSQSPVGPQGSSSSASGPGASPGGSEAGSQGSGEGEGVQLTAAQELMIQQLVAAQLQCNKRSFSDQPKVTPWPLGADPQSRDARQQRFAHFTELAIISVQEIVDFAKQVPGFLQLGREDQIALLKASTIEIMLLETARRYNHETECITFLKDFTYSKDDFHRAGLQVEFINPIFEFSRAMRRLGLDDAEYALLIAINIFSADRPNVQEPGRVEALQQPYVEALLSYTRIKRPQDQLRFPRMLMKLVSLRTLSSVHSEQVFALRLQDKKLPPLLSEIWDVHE
It counts as functional, cell-based.

Assay [7] in a line: cells.
Assay [8] can be described thus: HepG2 cell cytotoxicity, dose response, cytotoxicity control, ATP luminescence, cherry-pick, activator set 2 (AID 1053143). It counts as functional, cell-based.
Assay [9] in a line: NIH:OVCAR-3 ovarian cancer cell cytotoxicity, dose response, PAX8 inhibitor project, plate reader, dry powder samples (AID 743044). The assay is classed as functional, cell-based.
Assay [10] in a line: non-specific cell cytotoxicity, dose response, cytotoxicity control for PAX8 inhibitor project, plate reader, dry powder samples (AID 743021). It counts as functional, cell-based.
Assay [11] addresses Paired box protein Pax-8 (Homo sapiens, UniProt Q06710). In words: inhibitors of PAX8-driven TPO luciferase reporter, dose response, RMG-I cells, cherry-pick (AID 687027).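 Also: luciferase reporter driven by Pax8 target thyroperoxidase promoter measured by SteadyGlo luminescence.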 The assay is classed as functional, cell-based. For orientation: Reporter assays use an easily measured gene product as a stand-in for the process of interest.
Assay [12] in a line: cytotoxicity in OVCAR8 ovarian cancer cells, dose response, PAX8 project, cell-based, plate reader, dry powder samples (AID 743197). The assay is classed as functional. The following applies: OVCAR-8.
Assay [13] in a line: A2780 ovarian cancer cell cytotoxicity, dose response, cytotoxicity control, plate reader, dry powder samples (AID 743046). It counts as functional, cell-based.
Assay [14] deals with Caspase-6 (Homo sapiens, UniProt P55212). In words: human caspase-6 inhibitors, dose response, biochemical, VEID-R110 fluorescence, cherry-pick (AID 720632).
Assay [15] in a line: ARNT/TACC3 interaction disruptors, potency, confirmation, biochemical, AlphaScreen, cherry-picked samples (AID 651703).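 Also: His-tagged ARNT PAS-B domain paired with GST-TACC3 E629A dimer coactivator fragment; potency of inhibitors that break up the complex and lower AlphaScreen signal.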 The assay is classed as functional, Homo sapiens. On the technique in general: In Alpha technology, singlet oxygen from a donor bead excites a nearby acceptor bead.
A short description of assay [16]: cells. This is another data set of the same source.
Assay [17] deals with Major prion protein (Homo sapiens, UniProt P04156). It counts as functional, cell-based.
For assay [18], the target named is T1, Oxysterols receptor LXR-beta. Briefly: LXR agonists, Gal4 luciferase reporter, dose response, counter-screen for ssDAF-12 agonist project, cell-based, luminescence, HEK293, S. stercoralis campaign (AID 720737). The assay is classed as functional. As to conditions: read-out: IC50 (the source's name).
For assay [19] the target is unchanged. It counts as functional, cell-based. The source holds these as a separate data set.
A short description of assay [20]: Luminescence-based cell-based high throughput dose response assay to identify activators of the DAF-12 from the parasite S. stercoralis (ssDAF-12). It counts as functional.

What is called AC50 is the midpoint of the concentration-response curve, whichever way the signal moves. As a reminder, the IC50 is the concentration that inhibits the measured activity by half.

Turning to `O=c1ccc2cc(OC3O[C@H](CO)[C@@H](O)[C@H](O)[C@H]3O)c(O)cc2o1` (stereo not given in full), the AC50 in [1] is 2.24 µM (active).

Regarding `Cc1ccc(Nc2nc(-c3ccccc3)cs2)nc1`, the AC50 in [2] is 8.03 µM (active); in assay [3] it was > 52 µM (inactive); in [4] it was 13.3 µM (active); in [5] it was 37.4 µM (active). Besides, the EC50 in assay [6] and in assay [7] was > 67.5 µM (inactive) in each case.

With `Cc1noc(C)c1C(=O)Nc1nc2ccc(F)cc2s1`, the AC50 in [8] is > 52 µM (inactive).

Consider `COc1ccc(CN(C)C[C@@H]2OCCCC[C@H](C)Oc3ccc(NC(=O)Nc4ccc(C(F)(F)F)cc4)cc3C(=O)N([C@@H](C)CO)C[C@H]2C)cc1`, for which the AC50 is 2.91 µM (active) in assay [9]; 63.1 µM (active) in assay [10]; 14.6 µM (active) in assay [11]; 25.2 µM (active) in [12]; 21.9 µM (active) in [13].

Consider `CCOC(=O)C1CCN(C(=O)COC(=O)c2ccc([N+](=O)[O-])o2)CC1`, for which the AC50 is 18.5 µM (active) in assay [14] and 88.2 µM (active) in assay [15].

As for `Brc1cc(Br)c2nc3c(cc2c1)CCC3`, the IC50 is > 138 µM (inactive) in assay [16] and 5.89 µM (active) in assay [17].

For the compound `Oc1ccccc1-c1cc(-c2ccc(Cl)cc2)[nH]n1`, the EC50 in assay [18] and in assay [19] was > 67.5 µM (inactive) throughout. Besides, in [20], the IC50 was > 67.5 µM (inactive).
